# According to patent US12099068B2, “Biomarkers for graft-versus-host disease” (Incyte Corporation, priority 2018, dated 2024):
# Where “and” joins values, the source holds several entries; their conditions need not be identical. Equal entries are not always repeated. Where no end group is shown, it is not given here.
# Tested on: plasma proteins
# Assay: Proteins of Table 11 stably expressed in complete responders between days 1 and 28, Example 5 (Table 12)
# Assay type: in vivo, human
# Details: between baseline (Day 1) and Day 28
# Procedure: (§1) Due to the limited sample size, steroid-naive (N=10) and steroid-refractory (N=18) patients were combined for further analysis. Broad proteomic analysis of over 1000 proteins was conducted by OLINK Proteomics (Watertown, MA) using a proximity extension assay as described by the manufacturer. Data are presented as normalized protein expression (NPX) in log 2 scale. Statistical differences were evaluated using unpaired and paired t tests, one-way […] (ANOVA), and Pearson Correlation. Significance was conferred when P<0.05.
row,Compound,proteins from Table 11 that did not modulate in complete responders
1,"N#CCC1(n2cc(-c3ncnc4[nH]ccc34)cn2)CN(C2CCN(C(=O)c3ccnc(C(F)(F)F)c3F)CC2)C1 [itacitinib, {1-{1-[3-Fluoro-2-(trifluoromethyl)isonicotinoyl]piperidin-4-yl}-3-[4-(7H-pyrrolo[2,3-d]pyrimidin-4-yl)-1H-pyrazol-1-yl]azetidin-3-yl}acetonitrile]",89

# Tested on: plasma proteins
# Assay: Plasma proteins modulated between baseline and day 28 in responders (CR, VGPR, PR; n = 19), Example 6 (Table 13)
# Assay type: in vivo, human
# Details: plasma protein (OLINK NPX); responders (CR, VGPR, PR; n = 19); itacitinib 200 mg or 300 mg QD with corticosteroids; day 28 vs baseline
# Procedure: as §1
# Longitudinal differences in protein expression were analyzed by evaluating plasma samples from baseline/screening and day 28.
Compound,"Fold Change, Decreased Expression from Baseline to Day 28","Fold Change, Increased Expression from Baseline to Day 28"
DEFA1,−1.9173,–
THPO,–,1.867
NTRK3,–,1.2526
LTBP2,–,1.1874
ANXA11,−1.3456,–
LILRA5,−1.342,–
SCARA5,–,1.1342
DECR1,−1.4327,–
PLXNA4,−1.405,–
COL4A1,−1.2699,–
THBS4,−1.7307,–
PTX3,−1.5567,–
FURIN,–,1.2365
IL6,–,2.0047 and 1.8649 and 1.7278
METRNL,–,1.2013
PXN,−1.329,–
NMNAT1,−1.4212,–
MAP4K5,−1.658,–
NCAM1,–,1.3216
IQGAP2,−1.5317,–
DKN1A,−1.4302,–

Compound,"Fold Change, Decreased Expression from Baseline to Day 28","Fold Change, Increased Expression from Baseline to Day 28"
"GAL (GWTLNSAGYLLGPHAVGNHRSFSDKNGLTS; Galanin; UniProt P22466 33-62, looked up)",–,1.6888
EZR,–,1.1031
APP,−1.5208,–
VSIG4,−1.5046,–
PIgR,–,1.1476
TXNDC5,−1.4081,–
ADGRG1,−1.1823,–
GCG,–,1.8922
TNC,−1.6915,–
TOP2B,−1.7634,–
TNXB,−1.156,–
MMP-1,−1.4112,–
STIP1,−1.2812,–
TPSAB1,−1.9835,–
FGR,−1.4406,–
NTRK2,–,1.118
PAPPA,−1.3491,–
NEMO,−1.7984,–
ADM,–,1.2035
ARHGEF12,−1.8347,–
MAX,−1.449,–

Compound,"Fold Change, Decreased Expression from Baseline to Day 28","Fold Change, Increased Expression from Baseline to Day 28"
IGF2R,–,1.1734
PECAM-1,−1.2009,–
DNAJB1,−1.7332,–
SIGLEC1,−1.3842,–
MCP-1,–,1.6302 and 1.4322
HAVCR2,−1.312,–
NCR1,−1.3726,–
IGF1R,–,1.2432
LY75,−1.1401,–
CXCL5,−1.7254,–
Siglec-9,−1.1514,–
HDGF,−1.3392,–
CLEC1B,−1.7033,–
ITGB2,−1.6877,–
CCL11,–,1.2818 and 1.3146
CD27,−1.6873,–
FABP2,–,3.5893
YES1,−1.9824,–
SCF,–,1.4714 and 1.3943 and 1.4058
CA13,−1.8816,–
MUC-16,–,1.6356

Compound,"Fold Change, Decreased Expression from Baseline to Day 28","Fold Change, Increased Expression from Baseline to Day 28"
MMP7,–,1.3986
NRP1,−1.1237,–
FKBP1B,−1.9994,–
EIF4G1,−1.5969,–
ARSB,−1.3432,–
AXIN1,−1.8046,–
DSC2,−1.3652,–
TRIM5,−1.4743,–
ERBB2,–,1.1968
HGF,−1.5542,–
CBL,−1.7183,–
"PPY (APLEPVYPGDNATPEQMAQYAADLRRYINMLTRPRY; ends and bridges not checked; UniProt P01298 30-65, looked up)",–,1.9703
Gal-3,–,1.3504
THBS2,–,1.0963
PDGF subunit A,−1.6021,–
TIMP1,−1.2337,–
PPP1R9B,−1.6445,–
CD38,−1.4181,–

# Same assay, conditions: responders (CR, VGPR, PR; N=19); baseline to day 28
Compound,proteins significantly elevated,proteins significantly reduced,total proteins significantly modulated by treatment
"N#CCC1(n2cc(-c3ncnc4[nH]ccc34)cn2)CN(C2CCN(C(=O)c3ccnc(C(F)(F)F)c3F)CC2)C1 [itacitinib, {1-{1-[3-Fluoro-2-(trifluoromethyl)isonicotinoyl]piperidin-4-yl}-3-[4-(7H-pyrrolo[2,3-d]pyrimidin-4-yl)-1H-pyrazol-1-yl]azetidin-3-yl}acetonitrile]",105,248,353

# Tested on: subjects with aGvHD
# Assay: Parallel-cohort phase 1 trial, clinical response by CIBMTR response criteria at day 28
# Assay type: in vivo, human
# Details: 200 mg vs 300 mg once daily (QD) + corticosteroids
# Description: A broad proteomic analysis identified predictive, prognostic, and pharmacodynamic biomarkers of response to the combination treatment.
# Ten steroid-naive and eighteen steroid-refractory subjects with aGvHD were enrolled in the clinical trial. Plasma samples were collected from all 28 subjects prior to treatment (screening/baseline) and at day 28 following treatment. All subjects provided written consent prior to enrollment and sample collection. Based on the Center for International Blood and Marrow Transplant Research (CIBMTR) response criteria at day 28, subjects were separated into responders and non-responders. Responders included complete responders (CR; n=10), very good partial responders (VGPR; n=1), and partial responders (PR; n=8). Non-responders included mixed responders (n=2) and progressive disease/death (PD/Death; n=7).
# as §1
row,Compound,Clinical response between the two itacitinib doses
1,"N#CCC1(n2cc(-c3ncnc4[nH]ccc34)cn2)CN(C2CCN(C(=O)c3ccnc(C(F)(F)F)c3F)CC2)C1 [itacitinib, {1-{1-[3-Fluoro-2-(trifluoromethyl)isonicotinoyl]piperidin-4-yl}-3-[4-(7H-pyrrolo[2,3-d]pyrimidin-4-yl)-1H-pyrazol-1-yl]azetidin-3-yl}acetonitrile]",not significantly different

# Same assay, conditions: combination with corticosteroids; steroid naïve and refractory aGvHD patients
row,Compound,overall responses
1,"N#CCC1(n2cc(-c3ncnc4[nH]ccc34)cn2)CN(C2CCN(C(=O)c3ccnc(C(F)(F)F)c3F)CC2)C1 [itacitinib, {1-{1-[3-Fluoro-2-(trifluoromethyl)isonicotinoyl]piperidin-4-yl}-3-[4-(7H-pyrrolo[2,3-d]pyrimidin-4-yl)-1H-pyrazol-1-yl]azetidin-3-yl}acetonitrile]",improved overall responses
